{"source": "ChEMBL document CHEMBL3621169", "about": "“Synthesis of tetrazole compounds as a novel type of potential antimicrobial agents and their synergistic effects with clinical drugs and interactions with calf thymus DNA” (Medchemcomm, 2015)", "key": {"Pseudomonas aeruginosa [1]": {"test_system": "Pseudomonas aeruginosa", "test": "Antibacterial activity against Pseudomonas aeruginosa ATCC 27853 by micro dilution checkerboard method in the presence of chloromycin", "assay_type": "functional"}, "Bacillus sp. [2]": {"test_system": "Bacillus sp.", "test": "Antibacterial activity against Bacillus proteus ATCC 13315 by micro dilution checkerboard method in the presence of norfloxacin", "assay_type": "functional"}, "Staphylococcus aureus [3]": {"test_system": "Staphylococcus aureus", "test": "Antibacterial activity against methicillin-resistant Staphylococcus aureus N315 by micro dilution checkerboard method in the presence of norfloxacin", "assay_type": "functional"}, "Cyberlindnera jadinii [4]": {"test_system": "Cyberlindnera jadinii", "test": "Antifungal activity against Candida utilis ATCC 9950 after 24 hrs by micro broth dilution method", "assay_type": "functional", "details": "Williopsis jadinii, ATCC 9950, 24 h"}, "Micrococcus luteus [5]": {"test_system": "Micrococcus luteus", "test": "Antibacterial activity against Micrococcus luteus ATCC 4698 by micro dilution checkerboard method in the presence of norfloxacin", "assay_type": "functional"}, "Bacillus sp. [6]": {"test_system": "Bacillus sp.", "test": "Antibacterial activity against Bacillus proteus ATCC 13315 by micro dilution checkerboard method in the presence of chloromycin", "assay_type": "functional"}, "Pseudomonas aeruginosa [7]": {"test_system": "Pseudomonas aeruginosa", "test": "Antibacterial activity against Pseudomonas aeruginosa ATCC 27853 by micro dilution checkerboard method in the presence of norfloxacin", "assay_type": "functional"}, "Staphylococcus aureus [8]": {"test_system": "Staphylococcus aureus", "test": "Antibacterial activity against Staphylococcus aureus ATCC 25923 by micro dilution checkerboard method in the presence of norfloxacin", "assay_type": "functional"}, "Calf thymus DNA [9]": {"test_system": "Calf thymus DNA", "test": "Competitive binding affinity to calf thymus DNA by UV-visible spectroscopy in presence of neutral red", "assay_type": "nucleic-acid assay", "details": "Bos taurus"}, "Aspergillus flavus [10]": {"test_system": "Aspergillus flavus", "test": "Antifungal activity against Aspergillus flavus by micro dilution checkerboard method in the presence of fluconazole", "assay_type": "functional"}, "Staphylococcus aureus [11]": {"test_system": "Staphylococcus aureus", "test": "Antibacterial activity against Staphylococcus aureus ATCC 25923 by micro dilution checkerboard method in the presence of chloromycin", "assay_type": "functional"}, "Bacillus sp. [12]": {"test_system": "Bacillus sp.", "test": "Antibacterial activity against Bacillus proteus ATCC 13315 after 24 hrs by micro broth dilution method", "assay_type": "functional", "details": "Bacillus sp. (in: firmicutes), ATCC 13315, 24 h"}, "Candida [13]": {"test_system": "Candida", "test": "Antifungal activity against Candida mycoderma after 24 hrs by micro broth dilution method", "assay_type": "functional"}, "Escherichia coli [14]": {"test_system": "Escherichia coli", "test": "Antibacterial activity against Escherichia coli DH52 after 24 hrs by micro broth dilution method", "assay_type": "functional", "details": "DH52, 24 h"}, "Bacillus spizizenii [15]": {"test_system": "Bacillus spizizenii", "test": "Antibacterial activity against Bacillus subtilis ATCC 6633 by micro dilution checkerboard method in the presence of norfloxacin", "assay_type": "functional"}, "Calf thymus DNA [16]": {"test_system": "Calf thymus DNA", "test": "Binding affinity to calf thymus DNA by UV-visible spectroscopy", "assay_type": "nucleic-acid assay", "details": "Bos taurus"}, "Bacillus spizizenii [17]": {"test_system": "Bacillus spizizenii", "test": "Antibacterial activity against Bacillus subtilis ATCC 6633 by micro dilution checkerboard method in the presence of chloromycin", "assay_type": "functional"}, "Staphylococcus aureus [18]": {"test_system": "Staphylococcus aureus", "test": "Antibacterial activity against methicillin-resistant Staphylococcus aureus N315 after 24 hrs by micro broth dilution method", "assay_type": "functional", "details": "N315, 24 h"}, "Candida [19]": {"test_system": "Candida", "test": "Antifungal activity against Candida mycoderma by micro dilution checkerboard method in the presence of fluconazole", "assay_type": "functional"}, "Micrococcus luteus [20]": {"test_system": "Micrococcus luteus", "test": "Antibacterial activity against Micrococcus luteus ATCC 4698 by micro dilution checkerboard method in the presence of chloromycin", "assay_type": "functional"}, "Escherichia coli [21]": {"test_system": "Escherichia coli", "test": "Antibacterial activity against Escherichia coli DH52 by micro dilution checkerboard method in the presence of chloromycin", "assay_type": "functional"}, "Staphylococcus aureus [22]": {"test_system": "Staphylococcus aureus", "test": "Antibacterial activity against methicillin-resistant Staphylococcus aureus N315 by micro dilution checkerboard method in the presence of chloromycin", "assay_type": "functional"}, "[23]": {"test": "n-octanol/water partition coefficient, log P of the compound at 25 deg C after 24 hrs by saturation shake flask based UV spectroscopy", "assay_type": "physicochemical"}, "Staphylococcus aureus [24]": {"test_system": "Staphylococcus aureus", "test": "Antibacterial activity against Staphylococcus aureus ATCC 25923 after 24 hrs by micro broth dilution method", "assay_type": "functional", "details": "ATCC 25923, 24 h"}, "Aspergillus flavus [25]": {"test_system": "Aspergillus flavus", "test": "Antifungal activity against Aspergillus flavus after 24 hrs by micro broth dilution method", "assay_type": "functional"}, "Shigella dysenteriae [26]": {"test_system": "Shigella dysenteriae", "test": "Antibacterial activity against Shigella dysenteriae ATCC 51252 by micro dilution checkerboard method in the presence of chloromycin", "assay_type": "functional"}, "Bacillus spizizenii [27]": {"test_system": "Bacillus spizizenii", "test": "Antibacterial activity against Bacillus subtilis ATCC 6633 after 24 hrs by micro broth dilution method", "assay_type": "functional", "details": "ATCC 6633, 24 h"}, "Pseudomonas aeruginosa [28]": {"test_system": "Pseudomonas aeruginosa", "test": "Antibacterial activity against Pseudomonas aeruginosa ATCC 27853 after 24 hrs by micro broth dilution method", "assay_type": "functional", "details": "ATCC 27853, 24 h"}, "Escherichia coli [29]": {"test_system": "Escherichia coli", "test": "Antibacterial activity against Escherichia coli DH52 by micro dilution checkerboard method in the presence of norfloxacin", "assay_type": "functional"}, "Cyberlindnera jadinii [30]": {"test_system": "Cyberlindnera jadinii", "test": "Antifungal activity against Candida utilis ATCC 9950 by micro dilution checkerboard method in the presence of fluconazole", "assay_type": "functional"}, "Candida albicans [31]": {"test_system": "Candida albicans", "test": "Antifungal activity against Candida albicans ATCC 90029 by micro dilution checkerboard method in the presence of fluconazole", "assay_type": "functional"}, "[32]": {"test": "Ionization constant, pKa of the compound by UV spectroscopy", "assay_type": "physicochemical"}, "Micrococcus luteus [33]": {"test_system": "Micrococcus luteus", "test": "Antibacterial activity against Micrococcus luteus ATCC 4698 after 24 hrs by micro broth dilution method", "assay_type": "functional", "details": "ATCC 4698, 24 h"}, "Candida albicans [34]": {"test_system": "Candida albicans", "test": "Antifungal activity against Candida albicans ATCC 90029 after 24 hrs by micro broth dilution method", "assay_type": "functional", "details": "ATCC 90029, 24 h"}, "Shigella dysenteriae [35]": {"test_system": "Shigella dysenteriae", "test": "Antibacterial activity against Shigella dysenteriae ATCC 51252 by micro dilution checkerboard method in the presence of norfloxacin", "assay_type": "functional"}, "Shigella dysenteriae [36]": {"test_system": "Shigella dysenteriae", "test": "Antibacterial activity against Shigella dysenteriae ATCC 51252 after 24 hrs by micro broth dilution method", "assay_type": "functional", "details": "ATCC 51252, 24 h"}, "[37]": {"details": "Pseudomonas aeruginosa, ATCC 27853"}, "[38]": {"details": "Bacillus sp. (in: firmicutes), ATCC 13315"}, "[39]": {"details": "Staphylococcus aureus, ATCC 25923"}}, "note": "Activity calls are given as the source filed them. No cut-off for these calls is given here.", "data": [{"smiles": "Clc1ccccc1CN(Cc1nnn[nH]1)c1ccccc1", "values": [{"measurement": "fractional inhibitory concentration index (FICI)", "setting": "Pseudomonas aeruginosa [1]", "value": 0.5}, {"measurement": "MIC", "setting": "Pseudomonas aeruginosa [1]; [37]", "value": 16, "unit": "µg/mL"}, {"measurement": "fractional inhibitory concentration index (FICI)", "setting": "Bacillus sp. [2]", "value": 0.5}, {"measurement": "MIC", "setting": "Bacillus sp. [2]; [38]", "value": 16, "unit": "µg/mL"}, {"measurement": "fractional inhibitory concentration index (FICI)", "setting": "Staphylococcus aureus [3]", "value": 0.75}, {"measurement": "MIC", "setting": "Staphylococcus aureus [3]; Staphylococcus aureus, N315", "value": 8, "unit": "µg/mL"}, {"measurement": "MIC", "setting": "Cyberlindnera jadinii [4]", "value": 4, "unit": "µg/mL"}, {"measurement": "fractional inhibitory concentration index (FICI)", "setting": "Micrococcus luteus [5]", "value": 0.75}, {"measurement": "MIC", "setting": "Micrococcus luteus [5]; Micrococcus luteus, ATCC 4698", "value": 8, "unit": "µg/mL"}, {"measurement": "fractional inhibitory concentration index (FICI)", "setting": "Bacillus sp. [6]", "value": 0.75}, {"measurement": "MIC", "setting": "Bacillus sp. [6]; [38]", "value": 32, "unit": "µg/mL"}, {"measurement": "fractional inhibitory concentration index (FICI)", "setting": "Pseudomonas aeruginosa [7]", "value": 0.75}, {"measurement": "MIC", "setting": "Pseudomonas aeruginosa [7]; [37]", "value": 16, "unit": "µg/mL"}, {"measurement": "fractional inhibitory concentration index (FICI)", "setting": "Staphylococcus aureus [8]", "value": 0.5}, {"measurement": "MIC", "setting": "Staphylococcus aureus [8]; [39]", "value": 16, "unit": "µg/mL"}, {"measurement": "Activity", "setting": "Calf thymus DNA [9]", "value": "Active"}, {"measurement": "fractional inhibitory concentration index (FICI)", "setting": "Aspergillus flavus [10]", "value": 0.5}, {"measurement": "MIC", "setting": "Aspergillus flavus [10]; Aspergillus flavus", "value": 4, "unit": "µg/mL"}, {"measurement": "fractional inhibitory concentration index (FICI)", "setting": "Staphylococcus aureus [11]", "value": 0.75}, {"measurement": "MIC", "setting": "Staphylococcus aureus [11]; [39]", "value": 16, "unit": "µg/mL"}, {"measurement": "MIC", "setting": "Bacillus sp. [12]", "value": 16, "unit": "µg/mL"}, {"measurement": "MIC", "setting": "Candida [13]", "value": 4, "unit": "µg/mL"}, {"measurement": "MIC", "setting": "Escherichia coli [14]", "value": 16, "unit": "µg/mL"}, {"measurement": "fractional inhibitory concentration index (FICI)", "setting": "Bacillus spizizenii [15]", "value": 0.625}, {"measurement": "MIC", "setting": "Bacillus spizizenii [15]; Bacillus spizizenii, ATCC 6633", "value": 8, "unit": "µg/mL"}, {"measurement": "Activity", "setting": "Calf thymus DNA [16]", "value": "Dose-dependent effect"}, {"measurement": "K", "setting": "Calf thymus DNA [16]", "value": 4.16, "unit": "×10⁴ L/mol"}, {"measurement": "fractional inhibitory concentration index (FICI)", "setting": "Bacillus spizizenii [17]", "value": 0.375}, {"measurement": "MIC", "setting": "Bacillus spizizenii [17]; Bacillus spizizenii, ATCC 6633", "value": 16, "unit": "µg/mL"}, {"measurement": "MIC", "setting": "Staphylococcus aureus [18]", "value": 32, "unit": "µg/mL"}, {"measurement": "fractional inhibitory concentration index (FICI)", "setting": "Candida [19]", "value": 0.5}, {"measurement": "MIC", "setting": "Candida [19]; Candida", "value": 2, "unit": "µg/mL"}, {"measurement": "fractional inhibitory concentration index (FICI)", "setting": "Micrococcus luteus [20]", "value": 0.5}, {"measurement": "MIC", "setting": "Micrococcus luteus [20]; Micrococcus luteus, ATCC 4698", "value": 8, "unit": "µg/mL"}, {"measurement": "fractional inhibitory concentration index (FICI)", "setting": "Escherichia coli [21]", "value": 0.75}, {"measurement": "MIC", "setting": "Escherichia coli [21]; Escherichia coli, DH52", "value": 16, "unit": "µg/mL"}, {"measurement": "fractional inhibitory concentration index (FICI)", "setting": "Staphylococcus aureus [22]", "value": 0.5}, {"measurement": "MIC", "setting": "Staphylococcus aureus [22]; Staphylococcus aureus, N315", "value": 8, "unit": "µg/mL"}, {"measurement": "logP at 24 h", "setting": "[23]", "value": 1.09}, {"measurement": "MIC", "setting": "Staphylococcus aureus [24]", "value": 32, "unit": "µg/mL"}, {"measurement": "MIC", "setting": "Aspergillus flavus [25]", "value": 8, "unit": "µg/mL"}, {"measurement": "fractional inhibitory concentration index (FICI)", "setting": "Shigella dysenteriae [26]", "value": 0.5}, {"measurement": "MIC", "setting": "Shigella dysenteriae [26]; Shigella dysenteriae, ATCC 51252", "value": 8, "unit": "µg/mL"}, {"measurement": "MIC", "setting": "Bacillus spizizenii [27]", "value": 16, "unit": "µg/mL"}, {"measurement": "MIC", "setting": "Pseudomonas aeruginosa [28]", "value": 16, "unit": "µg/mL"}, {"measurement": "fractional inhibitory concentration index (FICI)", "setting": "Escherichia coli [29]", "value": 0.625}, {"measurement": "MIC", "setting": "Escherichia coli [29]; Escherichia coli, DH52", "value": 8, "unit": "µg/mL"}, {"measurement": "fractional inhibitory concentration index (FICI)", "setting": "Cyberlindnera jadinii [30]", "value": 0.5}, {"measurement": "MIC", "setting": "Cyberlindnera jadinii [30]; Williopsis jadinii, ATCC 9950", "value": 4, "unit": "µg/mL"}, {"measurement": "fractional inhibitory concentration index (FICI)", "setting": "Candida albicans [31]", "value": 0.75}, {"measurement": "MIC", "setting": "Candida albicans [31]; Candida albicans, ATCC 90029", "value": 2, "unit": "µg/mL"}, {"measurement": "pKa", "setting": "[32]", "value": 4.34}, {"measurement": "MIC", "setting": "Micrococcus luteus [33]", "value": 32, "unit": "µg/mL"}, {"measurement": "MIC", "setting": "Candida albicans [34]", "value": 8, "unit": "µg/mL"}, {"measurement": "MIC", "setting": "Shigella dysenteriae [35]", "value": 4, "unit": "µg/mL"}, {"measurement": "MIC", "setting": "Shigella dysenteriae [36]", "value": 32, "unit": "µg/mL"}]}]}
